Measured values as given in patent publication US10184933B2, “Compositions, systems and methods for gene expression noise drug screening and uses thereof” (priority 2013, dated 2019).
Structures can show the parent of a compound that is named as a salt.

system: HIV-1 LTR promoter; format: cell-based; conditions: not given

Compound | identified as variability suppressor (VS) in noise screen | identified as variability enhancer (VE) in noise screen
[O-][n+]1ccccc1[S-].[O-][n+]1ccccc1[S-].[Zn+2] [pyrithione zinc] | variability suppressors | –
[H]/N=C(/N)N/C(=N/[H])NCCc1ccccc1 [phenformin hydrochloride] | variability suppressors | –
Nc1nc2nc[nH]c2c(=S)[nH]1 [thioguanine] | – | variability enhancers
CCCSc1ccc2nc(NC(=O)OC)[nH]c2c1 [albendazole] | – | variability enhancers
C[C@H]1O[C@@H](O[C@H]2[C@@H](O)C[C@H](O[C@H]3[C@@H](O)C[C@H](O[C@H]4CC[C@@]5(C)[C@H](CC[C@@H]6[C@@H]5C[C@@H](O)[C@]5(C)[C@@H](C7=CC(=O)OC7)CC[C@]65O)C4)O[C@@H]3C)O[C@@H]2C)C[C@H](O)[C@@H]1O [digoxin] | – | variability enhancers
N=C(N)NCCN1CCCCCCC1 [V21, guanethidine sulfate] | – | variability enhancers
CNCCCC12CCC(c3ccccc31)c1ccccc12 [maprotiline hydrochloride] | variability suppressors | –
Cc1cc2nc3c(=O)[nH]c(=O)nc-3n(C[C@H](O)[C@H](O)[C@H](O)CO)c2cc1C [riboflavin] | – | variability enhancers
c1ccc(C2CN3CCSC3=N2)cc1 (centres unmarked) [tetramizole hydrochloride] | – | variability enhancers
CC(=O)[O-].[Hg+][c]1ccccc1 [phenylmercuric acetate] | – | variability enhancers

same assay, conditions: 10 uM, 24 hours

Compound | noise deviation of VM hit in the screen
Nc1ccn([C@@H]2O[C@H](CO)[C@@H](O)[C@@H]2O)c(=O)n1 [cytarabine, (β-D-arabinofuranosyl)cytosine] | +5 σ

same assay, conditions: Pharmakon 1600 library, 10 uM, 24 hours, FIG. 10

Compound | identified as variability enhancer (VE) in noise screen
C[C@@H]1O[C@@H](O[C@H]2C[C@@H](O)[C@]3(CO)[C@H]4[C@H](O)C[C@]5(C)[C@@H](C6=CC(=O)OC6)CC[C@]5(O)[C@@H]4CC[C@]3(O)C2)[C@H](O)[C@H](O)[C@H]1O [ouabain] | variability enhancers
O=C(O)c1nn(Cc2ccc(Cl)cc2Cl)c2ccccc12 [lonidamine] | variability enhancers
C[C@@H](O)CN(CCN(C[C@@H](C)O)C[C@@H](C)O)C[C@@H](C)O [editol] | variability enhancers
COC1=CC(=O)C[C@@H](C)[C@]12Oc1c(Cl)c(OC)cc(OC)c1C2=O [griseofulvin] | variability enhancers
CC(CCc1ccc(O)cc1)NCCc1ccc(O)c(O)c1 (centres unmarked) [dobutamine hydrochloride] | variability enhancers
CCC1=C[C@@H]2CN(C1)Cc1c([nH]c3ccccc13)[C@@](C(=O)OC)(c1cc3c(cc1OC)N(C)[C@H]1[C@@](O)(C(=O)OC)[C@H](OC(C)=O)[C@]4(CC)C=CCN5CC[C@]31[C@@H]54)C2 [vinorelbine] | variability enhancers
N[C@@H](Cc1ccc(N(CCCl)CCCl)cc1)C(=O)O [melphalan] | variability enhancers
Cc1cc2nc3c(=O)[nH]c(=O)nc-3n(C[C@H](O)[C@H](O)[C@H](O)COP(=O)([O-])O)c2cc1C.[Na+] [riboflavin 5-phosphate sodium] | variability enhancers
C=C(NC(=O)C(=C)NC(=O)c1csc(C2=N[C@@H]3c4csc(n4)[C@H]4NC(=O)c5csc(n5)[C@H]([C@](C)(O)[C@@H](C)O)NC(=O)[C@H]5CSC(=N5)/C(=C/C)NC(=O)[C@H]([C@@H](C)O)NC(=O)c5csc(n5)[C@]3(CC2)NC(=O)[C@H](C)NC(=O)C(=C)NC(=O)[C@H](C)NC(=O)[C@H]([C@@H](C)CC)N[C@@H]2C=Cc3c([C@H](C)O)cc(nc3[C@H]2O)C(=O)O[C@@H]4C)n1)C(N)=O [thiostrepton] | variability enhancers
CC(=O)O[C@H]1C(=O)[C@@]2(C)[C@H]([C@H](OC(=O)c3ccccc3)[C@]3(O)C[C@H](OC(=O)[C@H](O)[C@@H](NC(=O)c4ccccc4)c4ccccc4)C(C)=C1C3(C)C)[C@]1(OC(C)=O)CO[C@@H]1C[C@@H]2O [Taxol] | variability enhancers
CO[C@@]12[C@H](COC(N)=O)C3=C(C(=O)C(C)=C(N)C3=O)N1C[C@@H]1N[C@@H]12 [mitomycin c] | variability enhancers
S=c1nc[nH]c2nc[nH]c12 [V9, mercaptopurine] | variability enhancers
Cl.N=C(N)NCCC[C@H](N)C(=O)O [arginine hydrochloride] | variability enhancers
Nc1nc(Cl)nc2c1ncn2[C@@H]1O[C@H](CO)[C@@H](O)[C@@H]1F [clofarabine] | variability enhancers
Nc1nc2[nH]cc(CCc3ccc(C(=O)N[C@@H](CCC(=O)O)C(=O)O)cc3)c2c(=O)[nH]1 [V74, pemetrexed] | variability enhancers
CCc1c2c(nc3ccc(OC(=O)N4CCC(N5CCCCC5)CC4)cc13)-c1cc3c(c(=O)n1C2)COC(=O)[C@]3(O)CC [irinotecan hydrochloride] | variability enhancers

Compound | identified as variability enhancer (VE) in noise screen
CCN1CC(CCN2CCOCC2)C(c2ccccc2)(c2ccccc2)C1=O (centres unmarked) [doxapram hydrochloride] | variability enhancers
C[N+](C)(C)CC(O)CC(=O)[O-].Cl (centres unmarked) [carnitine hydrochloride] | variability enhancers
bleomycin [V66] | variability enhancers
COC(=O)C1=CCCN(C)C1 [Arecoline hydrobromide] | variability enhancers
CN(Cc1cnc2nc(N)nc(N)c2n1)c1ccc(C(=O)N[C@@H](CCC(=O)O)C(=O)O)cc1 (racemic) [methotrexate(+/−)] | variability enhancers
CN(C)C(=S)SSC(=S)N(C)C [thiram] | variability enhancers
CC[C@]1(O)C[C@H]2CN(CCc3c([nH]c4ccccc34)[C@@](C(=O)OC)(c3cc4c(cc3OC)N(C=O)[C@H]3[C@@](O)(C(=O)OC)[C@H](OC(C)=O)[C@]5(CC)C=CCN6CC[C@]43[C@@H]65)C2)C1 [vincristine sulfate] | variability enhancers
Nc1ccn([C@H]2CC[C@@H](CO)O2)c(=O)n1 [zalcitabine] | variability enhancers
CO[C@H]1/C=C/O[C@@]2(C)Oc3c(C)c(O)c4c(O)c(c5c(nc6cc(C)ccn65)c4c3C2=O)NC(=O)/C(C)=C\C=C\[C@H](C)[C@H](O)[C@@H](C)[C@@H](O)[C@@H](C)[C@H](OC(C)=O)[C@@H]1C [rifaximin] | variability enhancers
NCCS(=O)(=O)O [taurine] | variability enhancers
Nc1c2ccccc2nc2ccccc12 [aminacrine] | variability enhancers
COC(=O)Nc1nc2ccc(Sc3ccccc3)cc2[nH]1 [fenbendazole] | variability enhancers
CCN(CC)C(=O)c1cccnc1 [nikethamide] | variability enhancers
O=C1OC2(c3ccccc31)c1cc(I)c(O)c(I)c1Oc1c2cc(I)c(O)c1I [erythrosine sodium] | variability enhancers
CS(=O)(=O)OCCCCOS(C)(=O)=O [V69, busulfan] | variability enhancers

same assay, conditions: Pharmakon 1600 library, 10 uM, 24 hours, FIG. 12

Compound | identified as variability suppressor (VS) in noise screen
COP(=O)(OC)OC=C(Cl)Cl [dichlorvos] | variability suppressors
CN(C)CCCOc1nn(Cc2ccccc2)c2ccccc12 [benzydamine hydrochloride] | variability suppressors
Cc1ccc2c(Br)cc(Br)c(OC(=O)c3ccccc3)c2n1 [broxaldine] | variability suppressors
COP(=O)(OC)C(O)C(Cl)(Cl)Cl (centres unmarked) [trichlorfon] | variability suppressors
Nc1ncnc2c1ncn2[C@@H]1O[C@H](COP(=O)(O)O)[C@@H](O)[C@H]1O [adenosine phosphate] | variability suppressors
CN1C[C@H](C(=O)N[C@]2(C)O[C@@]3(O)[C@@H]4CCCN4C(=O)[C@H](Cc4ccccc4)N3C2=O)C=C2c3cccc4[nH]cc(c34)C[C@H]21 [ergotamine tartrate] | variability suppressors
COc1ccc(Cc2nccc3cc(OC)c(OC)cc23)cc1OC [Papaverine hydrochloride] | variability suppressors
C[C@@H]1C[C@@H]([C@H](O)CC2CC(=O)NC(=O)C2)C(=O)[C@@H](C)C1 [cycloheximide] | variability suppressors
c1ccc2c(c1)Nc1ccccc1S2 [phenothiazine] | variability suppressors
CCCCCC(=O)O[C@]1(C(C)=O)CC[C@H]2[C@@H]3CCC4=CC(=O)CC[C@]4(C)[C@H]3CC[C@@]21C [hydroxyprogesterone caproate] | variability suppressors
N#Cc1nn(-c2c(Cl)cc(C(F)(F)F)cc2Cl)c(N)c1[S+]([O-])C(F)(F)F (centres unmarked) [fipmnil, fipronil] | variability suppressors
